Assay results as given in ChEMBL document CHEMBL1141996, “cis-6-oxo-hexahydro-2-oxa-1,4-diazapentalene and cis-6-oxo-hexahydropyrrolo[3,2-c]pyrazole based scaffolds: design rationale, synthesis and cysteinyl proteinase inhibition” (Bioorg Med Chem Lett, 2005).

Tests used:
[1] = Binding affinity against cathepsin B
[2] = Binding affinity against cathepsin L
[3] = target: Cysteine proteinase B (Leishmania mexicana, UniProt P36400); assay: Binding affinity against Leishmania mexicana cysteine peptidase B (CPB)
[4] = target: Cruzipain (Trypanosoma cruzi, UniProt P25779); assay: Binding affinity against cruzaine
[5] = target: T1, Cathepsin K (Homo sapiens, UniProt P43235); assay: Binding affinity against human cathepsin K
T1 sequence (P43235 whole entry): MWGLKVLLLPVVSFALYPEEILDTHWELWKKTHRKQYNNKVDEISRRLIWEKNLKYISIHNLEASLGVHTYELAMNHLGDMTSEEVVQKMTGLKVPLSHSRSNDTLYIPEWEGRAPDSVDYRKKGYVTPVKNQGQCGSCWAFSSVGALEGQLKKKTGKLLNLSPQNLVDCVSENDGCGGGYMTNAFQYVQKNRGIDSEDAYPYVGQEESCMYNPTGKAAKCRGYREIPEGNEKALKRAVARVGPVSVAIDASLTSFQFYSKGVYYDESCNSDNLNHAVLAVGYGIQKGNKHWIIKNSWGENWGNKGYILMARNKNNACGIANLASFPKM

[6] = target: Cathepsin S (Homo sapiens, UniProt P25774); assay: Binding affinity against cathepsin S
Cathepsin S, sequence (P25774 whole entry): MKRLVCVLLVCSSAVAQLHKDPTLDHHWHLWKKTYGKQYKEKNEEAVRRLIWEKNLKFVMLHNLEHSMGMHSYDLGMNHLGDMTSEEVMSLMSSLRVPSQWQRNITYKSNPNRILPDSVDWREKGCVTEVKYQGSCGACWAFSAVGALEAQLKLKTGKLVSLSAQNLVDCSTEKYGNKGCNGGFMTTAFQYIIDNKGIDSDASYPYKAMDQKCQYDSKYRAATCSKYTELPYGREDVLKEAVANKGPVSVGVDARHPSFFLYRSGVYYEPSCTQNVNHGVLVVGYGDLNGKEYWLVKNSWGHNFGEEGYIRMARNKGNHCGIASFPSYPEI

Cysteine proteinase B, sequence (P36400 whole entry): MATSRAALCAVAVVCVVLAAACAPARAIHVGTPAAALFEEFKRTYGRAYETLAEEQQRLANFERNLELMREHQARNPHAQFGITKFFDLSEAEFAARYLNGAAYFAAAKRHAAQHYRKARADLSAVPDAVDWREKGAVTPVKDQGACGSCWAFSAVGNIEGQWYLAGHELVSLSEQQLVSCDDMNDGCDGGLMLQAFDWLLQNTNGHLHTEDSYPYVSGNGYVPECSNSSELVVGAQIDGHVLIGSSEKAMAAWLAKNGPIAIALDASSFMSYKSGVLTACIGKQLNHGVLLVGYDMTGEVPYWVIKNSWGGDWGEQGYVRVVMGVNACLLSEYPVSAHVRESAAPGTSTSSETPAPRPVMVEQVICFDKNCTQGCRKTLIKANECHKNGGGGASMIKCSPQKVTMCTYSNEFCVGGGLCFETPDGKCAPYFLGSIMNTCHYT
Cruzipain, sequence (P25779 whole entry): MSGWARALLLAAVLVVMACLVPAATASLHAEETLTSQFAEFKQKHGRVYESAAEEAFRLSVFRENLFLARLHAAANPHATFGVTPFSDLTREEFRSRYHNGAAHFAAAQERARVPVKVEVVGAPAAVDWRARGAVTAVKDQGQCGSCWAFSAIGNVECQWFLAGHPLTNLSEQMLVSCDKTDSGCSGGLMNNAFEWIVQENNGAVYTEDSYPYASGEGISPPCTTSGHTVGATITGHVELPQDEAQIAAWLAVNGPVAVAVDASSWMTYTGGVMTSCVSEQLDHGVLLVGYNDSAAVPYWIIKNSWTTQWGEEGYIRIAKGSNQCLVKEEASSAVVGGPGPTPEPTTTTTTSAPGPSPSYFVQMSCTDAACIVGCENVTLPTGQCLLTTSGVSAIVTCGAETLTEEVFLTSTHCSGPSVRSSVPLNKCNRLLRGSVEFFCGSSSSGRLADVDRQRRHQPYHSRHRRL

| Compound | Ki [1] | Ki [2] | Ki [3] | Ki [4] | Ki [5] | Ki [6] |
| --- | --- | --- | --- | --- | --- | --- |
| CC(C)C[C@H](NC(=O)c1ccc(N(C)C)cc1)C(=O)N1CC[C@@H]2[C@H]1C(=O)CN2C(=O)c1ccccc1 | > 10000 nM | 1800 nM | 1170 nM | 600 nM | 5.5 nM | > 3000 nM |
| CC(C)C[C@H](NC(=O)c1ccc(N(C)C)cc1)C(=O)N1OC[C@@H]2[C@H]1C(=O)CN2C(=O)c1ccccc1 | > 6000 nM | > 4300 nM | 1000 nM | 2500 nM | 40.1 nM | > 3000 nM |
| CC(C)C[C@H](NC(=O)c1ccc(C(C)(C)C)cc1)C(=O)N1NC[C@@H]2[C@H]1C(=O)CN2C(=O)c1ccccc1 | 119 nM | 370 nM | 49.5 nM | 93.2 nM | 3.5 nM | 434 nM |
| CC(C)C[C@H](NC(=O)c1ccc(C(C)(C)C)cc1)C(=O)N1CC[C@@H]2[C@H]1C(=O)CN2C(=O)c1ccccc1 | > 10000 nM | > 3500 nM | 691 nM | 173 nM | 10.1 nM | > 4500 nM |
